Where “and” joins values, the source holds several entries; their conditions need not be identical. Identical values can stand only once.
Columns and labels:
Conditions in all cases: incubation time: 72 h
[1] = system: MFM-223; assay: drug sensitivity score (DSS), CellTiter-Blue viability (DSS (AUC-based score)); higher = stronger viability inhibition; extreme values may be limits of the assay
Procedure, shortened: (§1)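 Each 384-well plate was normalised to two references, 0.1 % DMSO and a positive kill control. Breast cancer cell lines (20 µl suspension) had been seeded onto compound at 5 or 9 concentrations and incubated 72 h, after which viability was read by CellTiter-Blue fluorescence at 560/590 nm. The drug sensitivity score reflects the area under the fitted dose-response curve.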

[2] = system: CAL-148; assay: as above
Procedure, shortened: as §1

[3] = system: HDQ-P1; assay: as above
Procedure, shortened: as §1

[4] = system: DU-4475; assay: as above
Procedure, shortened: as §1

[5] = system: BT-549; assay: as above
Procedure, shortened: as §1

[6] = system: BT-474; assay: as above
Procedure, shortened: as §1

[7] = system: MDA-MB-231; assay: as above
Procedure, shortened: as §1

[8] = system: HCC1599; assay: as above
Procedure, shortened: as §1

[9] = system: MDA-MB-436; assay: as above
Procedure, shortened: as §1

[10] = system: MDA-MB-453; assay: as above
Procedure, shortened: as §1

[11] = system: CAL-85-1; assay: normalised response (% of control), CellTox Green; higher = less cell death (100 = DMSO, 0 = benzethonium chloride kill control)
Procedure, shortened: (§2)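 A 20 µl suspension of breast cancer cells was seeded into each well of 384-well plates containing compound at 5 concentrations in 10-fold steps over a compound-specific 10,000-fold range. After 72 h incubation, CellTox Green fluorescence (485/520 nm) was read first, and CellTiter-Glo luminescence was read after 10 min at room temperature. Each plate was normalised against 0.1 % DMSO (100) and a positive kill control (0), and each value is the normalised signal at one concentration.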

[12] = system: MFM-223; assay: as above
Procedure, shortened: as §2

[13] = system: MCF-10A; assay: as above
Procedure, shortened: as §2

[14] = system: CAL-148; assay: as above
Procedure, shortened: as §2

[15] = system: HCC1143; assay: as above
Procedure, shortened: as §2

[16] = system: Hs578T; assay: as above
Procedure, shortened: as §2

[17] = system: CAL-120; assay: as above
Procedure, shortened: as §2

[18] = system: CAL-51; assay: as above
Procedure, shortened: as §2

[19] = system: HDQ-P1; assay: as above
Procedure, shortened: as §2

[20] = system: DU-4475; assay: as above
Procedure, shortened: as §2

[21] = system: HCC1937; assay: as above
Procedure, shortened: as §2

[22] = system: BT-549; assay: as above
Procedure, shortened: as §2

[23] = system: BT-474; assay: as above
Procedure, shortened: as §2

[24] = system: MDA-MB-468; assay: as above
Procedure, shortened: as §2

[25] = system: MDA-MB-231; assay: as above
Procedure, shortened: as §2

[26] = system: HCC1599; assay: as above
Procedure, shortened: as §2

[27] = system: MDA-MB-436; assay: as above
Procedure, shortened: as §2

[28] = system: MDA-MB-453; assay: as above
Procedure, shortened: as §2

| SMILES | drug sensitivity score [1] | drug sensitivity score [2] | drug sensitivity score [3] | drug sensitivity score [4] | drug sensitivity score [5] | drug sensitivity score [6] | drug sensitivity score [7] | drug sensitivity score [8] | drug sensitivity score [9] | drug sensitivity score [10] | normalised response [11] [%] | normalised response [12] [%] | normalised response [13] [%] | normalised response [14] [%] | normalised response [15] [%] | normalised response [16] [%] | normalised response [17] [%] | normalised response [18] [%] | normalised response [19] [%] | normalised response [20] [%] | normalised response [21] [%] | normalised response [22] [%] | normalised response [23] [%] | normalised response [24] [%] | normalised response [25] [%] | normalised response [26] [%] | normalised response [27] [%] | normalised response [28] [%] |
| --- | --- | --- | --- | --- | --- | --- | --- | --- | --- | --- | --- | --- | --- | --- | --- | --- | --- | --- | --- | --- | --- | --- | --- | --- | --- | --- | --- | --- |
| COc1ncc(-c2ccc3nccc(-c4ccnnc4)c3c2)cc1NS(=O)(=O)c1ccc(F)cc1F | 20.6 | 17.3 | 21.1 | 10.8 | 13.6 | 19.9 | 13.3 | 17 | 14.2 | 25.7 |  |  |  |  |  |  |  |  |  |  |  |  |  |  |  |  |  |  |
| COc1cc(Nc2ncc(F)c(Nc3ccc4c(n3)NC(=O)C(C)(C)O4)n2)cc(OC)c1OC [R406] | 0 | 0 | 0 | 0 | 5.38 | 0 | 5.44 | 0 | 0 | 0 |  |  |  |  |  |  |  |  |  |  |  |  |  |  |  |  |  |  |
| CS(=O)(=O)CCNCc1ccc(-c2ccc3ncnc(Nc4ccc(OCc5cccc(F)c5)c(Cl)c4)c3c2)o1 [Lapatinib] |  | 3.64 and 1.81 | 0 | 0 | 3.9 and 2.66 | 17.2 and 17.8 |  |  | 4.07 and 1.46 | 17.8 and 17 |  |  |  |  |  |  |  |  |  |  |  |  |  |  |  |  |  |  |
| c1ccc(C2CN3CCSC3=N2)cc1 (stereo not given) [Tetramisole] | 0 | 0 | 0 | 0 | 0 | 0 | 0 | 0 | 0 | 0 |  |  |  |  |  |  |  |  |  |  |  |  |  |  |  |  |  |  |
| Cn1c(=O)c(F)c(Nc2ccc(I)cc2F)c2c(=O)n(C[C@@H](O)CO)cnc21 [TAK-733] | 5.03 | 0 | 3.87 | 29.3 | 0 | 0 | 18.1 | 0 | 0 | 3.27 |  |  |  |  |  |  |  |  |  |  |  |  |  |  |  |  |  |  |
| O=c1[nH]c(=O)n([C@H]2C[C@H](O)[C@@H](CO)O2)cc1F [Floxuridine] | 0 | 18.3 | 0 | 0 | 6.97 | 0 | 8.09 | 0.768 | 10.6 | 4.36 |  |  |  |  |  |  |  |  |  |  |  |  |  |  |  |  |  |  |
| CC(C)(C)c1cc(NC(=O)Nc2ccc(-c3cn4c(n3)sc3cc(OCCN5CCOCC5)ccc34)cc2)no1 [Quizartinib] | 0 | 0 | 0 | 0 | 3.75 | 0 | 0 | 0.62 | 0 | 0 |  |  |  |  |  |  |  |  |  |  |  |  |  |  |  |  |  |  |
| COc1ccc(C2=N[C@@H](c3ccc(Cl)cc3)[C@@H](c3ccc(Cl)cc3)N2C(=O)N2CCNC(=O)C2)c(OC(C)C)c1 [Nutlin-3] | 0 | 0 | 0 | 3.53 | 0 | 0 | 0 | 0 | 0 | 0 |  |  |  |  |  |  |  |  |  |  |  |  |  |  |  |  |  |  |
| CCOc1cc2ncc(C#N)c(Nc3ccc(OCc4ccccn4)c(Cl)c3)c2cc1NC(=O)/C=C/CN(C)C [Neratinib] | 0 | 0 | 0 | 0 | 0 | 0 | 0 | 0 | 0 | 4.42 |  |  |  |  |  |  |  |  |  |  |  |  |  |  |  |  |  |  |
| COc1c(C)cnc(Cn2cnc3c(Cl)nc(N)nc32)c1C [BIIB021] (1000 nM) |  |  |  |  |  |  |  |  |  |  | 71.3 | 99.3 | 1.93 | 26.9 | 90.5 | 63.4 | 95.5 | 71.2 | 90.4 | 68.5 | 108 | 139 | 77.3 | 135 | 71.8 | 107 | 80.9 | 102 |
| C#Cc1cccc(Nc2ncnc3cc(OC)c(OCCCCCCC(=O)NO)cc23)c1 [CUDC-101] (10000 nM) |  |  |  |  |  |  |  |  |  |  | -59 | 36.9 | 48.6 | -3.26 | 91.9 | 29.1 | 29.1 | 4.75 | 84.6 | 82.4 | 97.7 | 108 | 10.6 | -22.4 | 25.8 | 79.8 | 57.5 | 83.7 |
| COc1ncc(-c2ccc3nccc(-c4ccnnc4)c3c2)cc1NS(=O)(=O)c1ccc(F)cc1F (1000 nM) |  |  |  |  |  |  |  |  |  |  | 52.1 | 78.7 | 73.1 | 45 | 107 | 35.8 | 102 | 46.1 | 78.8 | 83.9 | 7.68 | 70.9 | 36.8 | -111 | 64.3 | 88.6 | 104 | 73.4 |
| CCS(=O)(=O)c1cccc(-c2cc(C(=O)NC3CCN(C)CC3)c(C)c3[nH]c4ncc(C)cc4c23)c1 [TAK-901] (1000 nM) |  |  |  |  |  |  |  |  |  |  | 58.9 | 85 | 90 | 84.6 | 87.8 | 106 | 84.2 | 36.5 | 55 | 97 | 95.2 | 41 | 91.5 | 74.3 | 57.7 | 97.1 | 69.2 | 105 |
| COc1ncc(-c2ccc3nccc(-c4ccnnc4)c3c2)cc1NS(=O)(=O)c1ccc(F)cc1F (100 nM) |  |  |  |  |  |  |  |  |  |  | 99.1 | 76.5 | 97.7 | 67 | 110 | 85.2 | 102 | 70 | 86 | 99.6 | 90.5 | 94.8 | 69.1 | 89.5 | 91.2 | 106 | 93.5 | 95 |
| CCOc1cc2ncc(C#N)c(Nc3ccc(OCc4ccccn4)c(Cl)c3)c2cc1NC(=O)/C=C/CN(C)C [Neratinib] (1000 nM) |  |  |  |  |  |  |  |  |  |  | 54 | 100 | 115 | 77.3 | 105 | 120 | 71.7 | 95.8 | 55.7 | 94.7 | 95.7 | 101 | 77.1 | -68.6 | 6.81 | 106 | 104 | 99.9 |
| CC(C)C[C@H](NC(=O)[C@H](Cc1ccccc1)NC(=O)c1cnccn1)B(O)O [Bortezomib] (100 nM) |  |  |  |  |  |  |  |  |  |  | -7.21 | 39.2 | 74 | -26.8 | 83.5 | 15.4 | 35.5 | -29 | 9.79 | 89.7 | -5.94 | 55.3 | 67.6 | -55.4 | -41.1 | 87.5 | 28.8 | 92.7 |
| C#Cc1cccc(Nc2ncnc3cc(OC)c(OCCCCCCC(=O)NO)cc23)c1 [CUDC-101] (1000 nM) |  |  |  |  |  |  |  |  |  |  | -33 | 85 | 100 | 74.4 | 85.1 | 98.8 | 90.9 | 86.1 | 101 | 81.3 | 113 | 142 | 83.7 | 35.1 | 49.2 | 82.2 | 72.7 | 65.4 |
| CN1CCN(c2ccc3nc(-c4c(N)c5c(F)cccc5[nH]c4=O)[nH]c3c2)CC1 [Dovitinib] (1000 nM) |  |  |  |  |  |  |  |  |  |  | 97.8 | 102 | 104 | 103 | 104 | 80.1 | 94 | 105 | 106 | 98.6 | 128 | 131 | 97.7 | 167 | 88.5 | 106 | 95.8 | 101 |
| C[C@@H]1C=C2C(=O)O[C@@H]3CC[C@H](C1)[C@]23O [Galiellalactone] (50000 nM) |  |  |  |  |  |  |  |  |  |  | 46.6 | 106 | 102 | 103 | 112 | 122 | 102 | 96.6 | 92.3 | 108 | 81.2 | 98.7 | 102 | 135 | 121 | 114 | 105 | 107 |
| COC1=C2C[C@@H](C)C[C@H](OC)[C@H](O)[C@@H](C)/C=C(\C)[C@H](OC(N)=O)[C@@H](OC)/C=C\C=C(/C)C(=O)NC(=CC1=O)C2=O [Geldanamycin] (10000 nM) |  |  |  |  |  |  |  |  |  |  | 3.38 | 44.1 | -24.5 | 54.8 | 99.5 | 98 | 75.1 | 39.3 | 65.2 | 68.2 | -41.7 | 99 | 35.9 | -27.4 | 6.32 | 99.2 | 80.8 | 82 |

Reference: the supplement of paper PMC4862054
